Consider four compounds from patent publication US20210002611A1, “IMPROVED ALPHA-BETA T PROCESSED CELL PRODUCTION METHOD” (OSAKA UNIVERSITY, priority 2018, published 2021).

Structures are written as SMILES.

The subject of series [1] is αβ T processed cells. Description: Perforin and granzyme B in culture supernatant after PMA/ionomycin stimulation (ELISA). It counts as cell-based, human. The conditions noted are these: after PMA (5 ng/ml) and ionomycin (0.5 μg/ml) stimulation; 4 healthy donor samples; vs cont. The protocol: Furthermore, perforin and granzyme B in the culture supernatant after the degranulation due to the PMA (5 ng/ml) and ionomycin (0.5 μg/ml) stimulation were determined by using Human Perforin ELISA Kit and Human Granzyme B ELISA Kit (Abcam plc.), respectively (FIG. 2B).
(ELISA stands for enzyme-linked immunosorbent assay.)

The subject of series [2] is sugar chains of αβ T processed cells. The series can be described thus: LC-MS mass spectrometry analysis of sugar chains on cell surface. It counts as cell-based, human. To be noted: summary of Table 1. From the text:
From the αβ T processed cells, sugar chains were purified and labeled by using BlotGlyco (Sumitomo Bakelite Co., Ltd.), and then the purified and labeled sugar chains were subjected to LC-MS mass spectrometry analysis (FIG. 5A).

Series [3] concerns αβ T processed cells. The series can be described thus: Cytokine production of αβ T processed cells (Bio-plex). It counts as cell-based, human. To be noted: culture supernatant after 24 hours in RPMI 1640 + 10% FCS without IL-2; 4 healthy donor samples; vs cont. The protocol: The cytokine production ability of the αβ T processed cells prepared in Example 1 was determined by using Bio-plex “human cytokine G1 27 plex panel” (Bio-Rad Laboratories, Inc.) (FIG. 2A). Specifically, the αβ T processed cells prepared in Example 1 were replaced in a medium containing RPMI 1640 and 10% FCS in the absence of IL-2, and cultured. The culture supernatant after 24 hours from the start of the culture was recovered, and subjected to measurement.

The subject of a further series is galectin-3. The series can be described thus: Galectin-3 binding ability of αβ T processed cells (flow cytometry). To be noted: cells cultured with 0 to 4 mM of 2DG; recombinant galectin-3, 4° C., 30 minutes; vs cont. It counts as cell-based. The protocol: The galectin-3 binding ability was detected with FITC-labeled anti-mouse IgG antibodies (Jackson ImmunoResearch Laboratories, Inc.). In this regard, as an experimental control of the galectin-3 binding, addition of 0.1 M of lactose (Sigma-Aldrich Co. LLC) for inhibiting the binding of galectin to sugar chains was performed. The measurement was performed by using a flow cytometer FACS CantoII (BD Biosciences), and the data were analyzed by using Kaluza (Beckman Coulter, Inc.) software.
For orientation: In flow cytometry, cells or beads pass a laser one at a time.

The subject of another series is K562 cells. The series can be described thus: Degranulation: CD107a exposure on CD8+ T cells in co-culture with cancer cells. It counts as cell-based, human. To be noted: co-culture with K562 cells 25:1, 6 hours. The text has this:
(§1) In the αβ T processed cells treated with 2DG as described above, secretions of effector factors such as cytokines, perforin, and granzyme B were promoted, and the cytotoxic activity was enhanced. Since exposure of CD107a localized in an intracellular vesicle onto the cell surface serves as an index of degranulation for the release of an effector factor from a cytotoxic T cell or a NK cell, the exposure of CD107a onto the cell surface by co-culture with cancer cells having different cytotoxicity was detected.
(§2) In the presence of APC-labeled anti-CD107a antibodies (BioLegend, Inc.), the αβ T processed cells and cancer cells were mixed at a ratio of 25:1, and the mixed cells were cultured for 6 hours. After the washing of the cultured cells, the washed cells were stained with PE-labeled anti-CD8 antibodies (Beckman Coulter, Inc.). The cells thus stained were subjected to measurement by using a flow cytometer FACS CantoII (BD Biosciences), and the obtained data were analyzed by using Kaluza (Beckman Coulter, Inc.) software (FIG. 2D).

A further series has as its system Daudi cells. Described as above. It counts as cell-based, human. To be noted: co-culture with Daudi cells 25:1, 6 hours.
Text: as §1, §2

Series [4] relates to Daudi (Burkitt's lymphoma cell line). Description: In vitro cytotoxic activity against cultured cells (Calcein-AM, Terascan). It counts as cell-based, human. The conditions noted are these: cancer cells:αβ T processed cells 1:25, 2 to 4 hours; vs conventional method. The protocol:
(§3) The cytotoxic activity test by fluorescent staining was performed by using Terascan VPC2 (Minerva Tech K.K.). Cancer cell line K562 (leukemia cell line), Daudi (Burkitt's lymphoma cell line), and HOS (osteosarcoma cell line), and DLD1 (colon cancer cell line) were labeled for 30 minutes with 2.55 to 5 μg/mL of fluorescent dye Cellstein R-Calcein-AM solution (DOJINDO LABORATORIES). The labeled cancer cells and the αβ T processed cells were mixed at a ratio of 1:25, and the mixed cells were incubated for 2 to 4 hours in RPMI 1640 and 10% FBS (in the absence of IL-2). The cytotoxic activity was calculated by using changes in the fluorescence intensity of the cancer cells co-cultured with the αβ T processed cells as an index, assuming the fluorescence decay rate when treated with 1% NP40 (surfactant) as 100% (FIG. 2C).

Series [5] relates to cancer cells. Description: Suppression of cytotoxic activity of 2DG-treated αβ T processed cells by D-mannose. It counts as cell-based, human. The conditions noted are these: 2 mM D-mannose or L-mannose added to the culture with 2 mM 2DG. How it is done: as §3
Therefore, it was investigated whether or not the cytotoxic activity ability was suppressed by adding D-mannose to the processing of αβ T cells treated with 2DG.
In the preparation of Example 1, αβ T processed cells were prepared with the addition of 2 mM of D-mannose (Sigma-Aldrich Co. LLC) or L-mannose (Tokyo Chemical Industry Co., Ltd.), and the prepared αβ T processed cells were subjected to the measurement of cytotoxic activity by the method described in item 3.2.

In series [6] the test system is αβ T processed cells. Description: Intracellular perforin production in αβ T processed cells (flow cytometry, MFI). It counts as cell-based, human. The conditions noted are these: 2 mM D-mannose or L-mannose added to the culture with 2 mM 2DG; for Intracellular granzyme B: data not shown. The protocol:
Next, it was verified whether or not mannose inhibited the increase in the amount of intracellular perforin of the αβ T processed cells treated with 2DG. In the preparation of Example 1, αβ T processed cells were prepared with the addition of 2 mM of D-mannose (Sigma-Aldrich Co. LLC) or L-mannose (Tokyo Chemical Industry Co., Ltd.), the prepared cells were treated with IntraPrep Permeabilization Reagent (Beckman Coulter, Inc.), and the expression level of the intracellular perforin was determined by staining the cells with APC-labeled anti-perforin antibodies. The stained cells were subjected to measurement by using a flow cytometer FACS CantoII (BD Biosciences), and the data were analyzed by using Kaluza (Beckman Coulter, Inc.) software. The Mean Fluorescence Intensity (MFI) value is mean fluorescence intensity, and reflects the expression level.

The test system of another series is IL-2 receptor. Description: IL-2 receptor expression on αβ T processed cells (flow cytometry). The conditions noted are these: cells cultured with 2DG and D-mannose. It counts as cell-based, human. The protocol:
It is known that the intracellular perforin and granzyme B in effector cells are induced and expressed by the stimulation from IL-2 receptor on a T cell. Therefore, the expression of the IL-2 receptor was confirmed. […] The obtained resuspension was passed through a cell strainer to remove aggregates. The obtained cells were incubated for 1 hour on ice, together with PE/Cy5-labeled anti-IL-2R antibodies (BioLegend, Inc.), and FITC-labeled anti-CD3 antibodies (Beckman Coulter, Inc.), and after the washing of the incubated cells, the measurement was performed by using a flow cytometer FACS Cantoll (BD Biosciences). The data were analyzed by using Kaluza (Beckman Coulter, Inc.) software.

Series [7] has as its system cancer cells. Description: Cytotoxic activity of αβ T processed cells cultured with a glycolytic inhibitor. It counts as cell-based, human. To be noted: cells prepared with oxamate (2 mM) or bromo pyruvate (10 μM); vs cells not treated with 2DG. The protocol: as §3
By using the method described in 3.2. of Example 3, the cytotoxic activity against each of cancer cells, by the αβ T processed cells treated with oxamate (2 mM) or bromo pyruvate (10 μM), which is a glycolytic inhibitor, was examined.

For `OCC1O[C@H](O)C[C@@H](O)[C@@H]1O` (mixture of isomers) [2DG, 2-deoxy-d-glucose], in the series on αβ T processed cells [1], the “Secretion of granzyme B” value is listed as “increased by 2DG treatment in 3 cases out of 4 cases” and the Secretion of perforin result is reported as “increased by 2DG treatment in 3 cases out of 4 cases”. In series [2], the “Effect of 2DG treatment on N-glycans (sugar chain analysis)” value is “abnormal increase of the mature branched N-glycan in which deoxyhexose had been introduced”. In addition, the “Secretion of cytokines (IL-2, IFN-γ, TNFα)” value in the series with αβ T processed cells [3] is recorded as “increased by 2DG treatment in 3 cases out of 4 cases”. The Galectin-3 binding ability result with galectin-3 was “reduced in a dose-dependent manner”. For the same compound, the “Exposure of CD107a onto the cell surface (degranulation of CD8+ T cells)” value in the series on K562 cells is on record as “promoted”. Further, in the series with Daudi cells, the “Exposure of CD107a onto the cell surface (degranulation of CD8+ T cells)” value is listed as “not promoted”. For the same compound, the “Cytotoxic activity against Daudi” value in series [4] was “had not been increased”.
Consider `O=C[C@@H](O)[C@@H](O)[C@H](O)[C@H](O)CO` [D-mannose], for which the “Cytotoxic activity of αβ T processed cells cultured with 2DG plus mannose” value with cancer cells [5] is given as “reduced the effect of 2DG”. Moreover, in the series with αβ T processed cells [6], the “Intracellular perforin expression level (MFI)” value is “reduced the effect of 2DG” and the “Intracellular granzyme B” value was “the results were also similar”. Moreover, the “Expression of the IL-2 receptor on a cell surface” value with IL-2 receptor is recorded as “suppressed”.
Take `O=C[C@H](O)[C@H](O)[C@@H](O)[C@@H](O)CO` [L-mannose]: in the series on cancer cells [5], the “Cytotoxic activity of αβ T processed cells cultured with 2DG plus mannose” value is “no influence on the cytotoxic activity of 2DG”. Also, in the series with αβ T processed cells [6], the “Intracellular perforin expression level (MFI)” value is “no influence” and the “Intracellular granzyme B” value is recorded as “the results were also similar”.
As for `NC(=O)C(=O)O` [oxamate], in the series with cancer cells [7], the “Cytotoxic activity against cancer cells” value is “no enhancement of the cytotoxic activity was observed”.
